Values quoted from earlier work as cited in PubChem BioAssay AID1259409 (Chemical Carcinogenesis Research Information System (CCRIS), 2018).

System: rodent chemically induced tumor inhibition, incidence and multiplicity
Assay: CCRIS tumor inhibitor studies
Conditions: Dose [Inhibitor]: 0, Species: MOUSE

Compound	tumour outcome (control, treated, inhibition, significance) (Carcinogen: 7,12-DIMETHYLBENZ[A]ANTHRACENE, 57-97-6, 30 MG/KG BW TWICE AT 24 HR AND 2 HR PRIOR TO CARCINOGEN DOSE (STUDY DURATION: 18 WK), Route [Inhibitor]: GAVAGE, Strain/Sex: SENCAR/FEMALE, Target Tissue: Type of Lesion: INTEGUMENTARY SYSTEM: SKIN PAPILLOMA, Dose [Carcinogen]: 10 NMOL IN 0.2 ML ACETONE ONCE, Promoter: 12-O-TETRADECANOYLPHORBOL-13-ACETATE, 16561-29-8)	tumour outcome (control, treated, inhibition, significance) (Carcinogen: 7,12-DIMETHYLBENZ[A]ANTHRACENE, 57-97-6, 70 MG/KG BW TWICE AT 24 HR AND 2 HR PRIOR TO CARCINOGEN DOSE (STUDY DURATION: 18 WK), Route [Inhibitor]: GAVAGE, Strain/Sex: SENCAR/FEMALE, Target Tissue: Type of Lesion: INTEGUMENTARY SYSTEM: SKIN PAPILLOMA, Dose [Carcinogen]: 10 NMOL IN 0.2 ML ACETONE ONCE, Promoter: 12-O-TETRADECANOYLPHORBOL-13-ACETATE, 16561-29-8)	tumour outcome (control, treated, inhibition, significance) (Carcinogen: 7,12-DIMETHYLBENZ[A]ANTHRACENE, 57-97-6, 150 MG/KG BW TWICE AT 24 HR AND 2 HR PRIOR TO CARCINOGEN DOSE (STUDY DURATION: 18 WK), Route [Inhibitor]: GAVAGE, Strain/Sex: SENCAR/FEMALE, Target Tissue: Type of Lesion: INTEGUMENTARY SYSTEM: SKIN PAPILLOMA, Dose [Carcinogen]: 10 NMOL IN 0.2 ML ACETONE ONCE, Promoter: 12-O-TETRADECANOYLPHORBOL-13-ACETATE, 16561-29-8)	tumour outcome (control, treated, inhibition, significance) (Carcinogen: 7,12-DIMETHYLBENZ[A]ANTHRACENE, 57-97-6, 400 NMOL IN 0.2 ML ACETONE ONCE 5 MIN PRIOR TO CARCINOGEN DOSE (STUDY DURATION: 18 WK), Route [Inhibitor]: DERMAL, Strain/Sex: SENCAR/FEMALE, Target Tissue: Type of Lesion: INTEGUMENTARY SYSTEM: SKIN PAPILLOMA, Dose [Carcinogen]: 10 NMOL IN 0.2 ML ACETONE ONCE, Promoter: 12-O-TETRADECANOYLPHORBOL-13-ACETATE, 16561-29-8)	tumour outcome (control, treated, inhibition, significance) (Carcinogen: 7,12-DIMETHYLBENZ[A]ANTHRACENE, 57-97-6, 800 NMOL IN 0.2 ML ACETONE ONCE 5 MIN PRIOR TO CARCINOGEN DOSE (STUDY DURATION: 18 WK), Route [Inhibitor]: DERMAL, Strain/Sex: SENCAR/FEMALE, Target Tissue: Type of Lesion: INTEGUMENTARY SYSTEM: SKIN PAPILLOMA, Dose [Carcinogen]: 10 NMOL IN 0.2 ML ACETONE ONCE, Promoter: 12-O-TETRADECANOYLPHORBOL-13-ACETATE, 16561-29-8)	tumour outcome (control, treated, inhibition, significance) (Carcinogen: 7,12-DIMETHYLBENZ[A]ANTHRACENE, 57-97-6, 1600 NMOL IN 0.2 ML ACETONE ONCE 5 MIN PRIOR TO CARCINOGEN DOSE (STUDY DURATION: 18 WK), Route [Inhibitor]: DERMAL, Strain/Sex: SENCAR/FEMALE, Target Tissue: Type of Lesion: INTEGUMENTARY SYSTEM: SKIN PAPILLOMA, Dose [Carcinogen]: 10 NMOL IN 0.2 ML ACETONE ONCE, Promoter: 12-O-TETRADECANOYLPHORBOL-13-ACETATE, 16561-29-8)	tumour outcome (control, treated, inhibition, significance) (Carcinogen: 7,12-DIMETHYLBENZ[A]ANTHRACENE, 57-97-6, 3200 NMOL IN 0.2 ML ACETONE ONCE 5 MIN PRIOR TO CARCINOGEN DOSE (STUDY DURATION: 18 WK), Route [Inhibitor]: DERMAL, Strain/Sex: SENCAR/FEMALE, Target Tissue: Type of Lesion: INTEGUMENTARY SYSTEM: SKIN PAPILLOMA, Dose [Carcinogen]: 10 NMOL IN 0.2 ML ACETONE ONCE, Promoter: 12-O-TETRADECANOYLPHORBOL-13-ACETATE, 16561-29-8)	tumour outcome (control, treated, inhibition, significance) (Carcinogen: NONE USED, 1 SILASTIC CAPSULE (1.5, 2.0, AND 15 MM IN INNER AND OUTER DIAMETERS AND LENGTH, RESPECTIVELY) REPLACED AFTER 2 MO IN, Route [Inhibitor]: SUBCUTANEOUS IMPLANT, Strain/Sex: SHN/FEMALE, Target Tissue: Type of Lesion: MAMMARY GLAND: TUMOR, Promoter: NONE USED)
COc1c2ccoc2c(OC)c2oc(=O)ccc12	30/30 (100%), 29/30 (97%), 3%, not significant	30/30 (100%), 26/30 (86%), 14%, not significant	30/30 (100%), 23/30 (78%), 22%, p< 0.006	30/30 (100%), 28/30 (93%), 7%, not significant	30/30 (100%), 27/30 (90%), 10%, not significant	30/30 (100%), 23/30 (77%), 23%, p< 0.002	30/30 (100%), 27/30 (89%), 11%, not significant	–
C=C1C[C@H]2[C@@H]3CC[C@H](OC(C)=O)[C@@]3(C)CC[C@@H]2[C@@]2(C)CCC(=O)C=C12	–	–	–	–	–	–	–	100%, 75%, 25%, p<0.01
